Reference: US11541056B2, “3-hydroxy-N-(3-(7H-pyrrolo[2,3-d]pyrimidin-4-yl)phenyl)pyrrolidine-1-carboxamide derivatives” (NOVARTIS AG, priority 2018, dated 2023)

Key:
IKZF3-GFP = target: T1, IKZF3-GFP (Homo sapiens, UniProt Q9UKT9); experiment: IKZF3-GFP protein abundance flow cytometry assay in HEK293A cells; type: cell-based; conditions: 24 h, Table 1; for IKZF3 deg Amax %: % protein remaining at maximum degradation
T1 construct: gateway cloning of IKZF3 from a pENTR221-IKZF3(STOP-Leu) construct into the previously described pLenti6-DEST-GFP-Ires-RFP vector; expressed in transfected cells; host or cells: HEK293A cells (Invitrogen R70507), lentiviral transduction with pLenti6-IKZF3-GFP-Ires-RFP, blasticidin-selected
Experimental: Compounds of the invention were tested in the following cellular assays. […] TMD8 cells are BTK dependent and OCI-LY3 cells are BTK independent.
BTK-GFP and IKZF3-GFP Protein Abundance Flow Cytometry Assay in HEK293A Cells:
Degradation of BTK or IKZF3 was measured in HEK293A cells (Invitrogen R70507) expressing either BTK-GFP and RFP or IKZF3-GFP and RFP from a stably integrated bicistronic BTK-GFP-iresRFP or IKZF3-GFP-iresRFP construct, respectively. Reduction of the GFP signal measured by flow cytometry served as readout for BTK or IKZF3 degradation after degrader treatment.
Stable HEK293A-BTK-GFP-iresRFP cells were maintained in complete growth medium (DMEM high Glucose+10% FCS+1% L-Glutamine+1% NEAA+1% NaPyr.) with passaging performed twice per week. On Day 0, HEK293A-BTK-GFP-iresRFP or HEK293A-IKZF3-GFP-iresRFP and HEK293A-iresRFP cells were seeded at 10,000 cells/well in a 96-well microtiter plate in 260 μl complete medium. On Day 1, cells were treated in duplicate with 10-point 1:3 dilution series of compound using the HP D300 Digital Dispenser (Tecan). DMSO concentrations were normalized across the plate to 0.1%. On Day 2, after 24 h of incubation at 37° C., treatment media was discarded, cells rinsed with 100 ul/well PBS and then detached using 40 ul trypsin/well for 5 min. Trypsin was neutralized with 100 ul/well PBS+20% FCS). Flow cytometry was performed on the samples using the BD FACS CANTO II (Becton Dickinson). Cell identification was then performed using forward (FSC) vs. side scatter (SSC) plots. Single cell discrimination is performed using SSC-Width (SSC-W) vs. SSC-Height (SSC-H) plots. Median GFP values for 5,000 single cells are used to determine BTK levels. Median GFP values from HEK293A-iresRFP are used as a background signal and thus defining 0% BTK signal. Median GFP values from DMSO treated HEK293A-BTK-GFP-iresRFP or HEK293A-IKZF3-GFP-iresRFP are used to define 100% BTK signal for subsequent DC50 curves (concentration at 50% BTK degradation). GFP and RFP are read in the channels called FITC and PE, respectively.
Concentration response curves plotting relative reduction of the GFP signal (measured by flow cytometry) versus 10 compound concentrations (starting concentration 10 μM, 3 fold dilution steps) of the compounds allowed generation of DC50 values.
Data is shown in Table 2, in which, DC50 refers to the concentration at which 50% maximal degradation was observed; deg Amax is the extent of degradation and the value refers to the % protein remaining at the concentration at which maximum degradation is seen.

BTK(C481S)-GFP = target: T2, BTK(C481S)-GFP (Homo sapiens, UniProt Q06187+Q96SW2, C481S); experiment: BTK(C481S)-GFP protein abundance flow cytometry assay in TMD8 cells; type: cell-based; conditions: for BTK (C481S) Amax %: % protein remaining at concentration of maximum degradation; for DC50: concentration at which 50% maximal degradation was observed
T2 construct: with a mutagenesis reaction on pENTR221-BTK (STOP-Leu); CHYSEL (cis-acting hydrolase element, 2A) remnant after GFP; mCherry is split off as a separate protein (C); expressed in transfected cells; host or cells: TMD8 cells, lentiviral transduction with pLenti6-BTK(C481S)-GFP-CHYSEL-mCherry
Experimental: Compounds of the invention were tested in the following cellular assays. The terms in Table 1 are defined as follows: DC50 refers to the concentration at which 50% maximal degradation was observed; deg Amax is the extent of degradation and the value refers to the % protein remaining at the concentration at which maximum degradation is seen; Prol GI50 refers to the proliferation data and defines the concentration at which 50% growth inhibition was observed compared to the vehicle treated control at the end of the incubation time. TMD8 cells are BTK dependent and OCI-LY3 cells are BTK independent.
BTK(C481S)-GFP Protein Abundance Flow Cytometry Assay in TMD8 Cells:
Degradation of BTK(C481S) was measured in TMD8 cells expressing BTK(C481S)-GFP and mCherry from a stably integrated second generation bicistronic BTK(C481S)-GFP-CHYSEL-mCherry construct. Reduction of the GFP signal measured by flow cytometry served as readout for BTK(C481S) degradation after degrader treatment.

T1 sequence (Q96SW2 whole entry partner): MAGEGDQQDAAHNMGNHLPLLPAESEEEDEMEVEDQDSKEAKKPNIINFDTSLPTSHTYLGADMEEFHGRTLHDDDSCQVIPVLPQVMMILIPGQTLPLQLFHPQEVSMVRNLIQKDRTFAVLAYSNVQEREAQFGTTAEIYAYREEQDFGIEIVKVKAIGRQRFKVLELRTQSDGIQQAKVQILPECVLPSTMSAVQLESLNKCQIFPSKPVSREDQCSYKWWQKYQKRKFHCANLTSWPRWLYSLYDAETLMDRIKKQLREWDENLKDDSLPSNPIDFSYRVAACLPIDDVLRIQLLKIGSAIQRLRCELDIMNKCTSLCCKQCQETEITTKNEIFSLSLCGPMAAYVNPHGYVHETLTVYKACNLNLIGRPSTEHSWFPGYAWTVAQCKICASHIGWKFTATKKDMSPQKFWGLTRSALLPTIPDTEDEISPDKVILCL
T1 sequence (Q16531 whole entry partner): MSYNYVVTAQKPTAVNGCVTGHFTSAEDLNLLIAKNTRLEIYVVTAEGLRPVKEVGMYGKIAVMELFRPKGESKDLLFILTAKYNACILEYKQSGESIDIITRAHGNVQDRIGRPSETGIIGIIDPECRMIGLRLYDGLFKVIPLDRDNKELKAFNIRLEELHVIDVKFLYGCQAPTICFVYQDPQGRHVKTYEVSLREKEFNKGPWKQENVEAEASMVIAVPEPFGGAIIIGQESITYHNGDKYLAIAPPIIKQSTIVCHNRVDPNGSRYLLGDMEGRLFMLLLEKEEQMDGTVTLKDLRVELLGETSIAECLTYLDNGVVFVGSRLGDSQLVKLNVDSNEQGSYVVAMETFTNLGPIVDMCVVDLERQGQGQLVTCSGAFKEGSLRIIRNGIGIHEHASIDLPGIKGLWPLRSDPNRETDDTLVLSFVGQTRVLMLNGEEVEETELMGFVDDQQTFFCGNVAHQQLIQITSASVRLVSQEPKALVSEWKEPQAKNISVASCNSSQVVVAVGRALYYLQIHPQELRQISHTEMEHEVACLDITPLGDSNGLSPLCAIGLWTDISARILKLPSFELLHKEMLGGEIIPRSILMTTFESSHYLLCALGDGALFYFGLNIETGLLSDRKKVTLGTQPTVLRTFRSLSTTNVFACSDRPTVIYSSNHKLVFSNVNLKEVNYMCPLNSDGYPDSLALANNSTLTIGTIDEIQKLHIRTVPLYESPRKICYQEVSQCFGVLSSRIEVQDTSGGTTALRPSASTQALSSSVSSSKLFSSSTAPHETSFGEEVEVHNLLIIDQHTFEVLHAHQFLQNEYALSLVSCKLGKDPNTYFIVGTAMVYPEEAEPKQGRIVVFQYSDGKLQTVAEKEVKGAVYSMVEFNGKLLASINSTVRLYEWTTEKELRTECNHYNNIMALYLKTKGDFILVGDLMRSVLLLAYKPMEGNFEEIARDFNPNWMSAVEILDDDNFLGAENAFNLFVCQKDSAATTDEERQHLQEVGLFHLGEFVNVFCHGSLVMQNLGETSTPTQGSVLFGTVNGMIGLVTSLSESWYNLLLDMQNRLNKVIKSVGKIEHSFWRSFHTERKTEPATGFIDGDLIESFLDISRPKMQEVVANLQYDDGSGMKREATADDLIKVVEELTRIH
T1 sequence (Q9UKT9 whole entry): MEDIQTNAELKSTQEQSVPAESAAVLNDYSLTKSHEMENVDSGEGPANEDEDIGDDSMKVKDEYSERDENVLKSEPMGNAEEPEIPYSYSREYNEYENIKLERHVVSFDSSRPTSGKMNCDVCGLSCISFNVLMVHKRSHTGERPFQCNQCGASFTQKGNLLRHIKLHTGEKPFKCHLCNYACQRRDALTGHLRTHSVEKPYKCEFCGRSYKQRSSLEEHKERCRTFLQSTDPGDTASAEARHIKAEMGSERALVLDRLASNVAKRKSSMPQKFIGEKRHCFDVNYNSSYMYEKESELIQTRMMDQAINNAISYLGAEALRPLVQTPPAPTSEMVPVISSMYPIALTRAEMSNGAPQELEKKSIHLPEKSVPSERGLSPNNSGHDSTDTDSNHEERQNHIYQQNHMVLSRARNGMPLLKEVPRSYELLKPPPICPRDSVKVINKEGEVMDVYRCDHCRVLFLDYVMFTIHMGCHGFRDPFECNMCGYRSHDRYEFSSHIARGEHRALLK
T2 sequence (Q06187 whole entry C481S): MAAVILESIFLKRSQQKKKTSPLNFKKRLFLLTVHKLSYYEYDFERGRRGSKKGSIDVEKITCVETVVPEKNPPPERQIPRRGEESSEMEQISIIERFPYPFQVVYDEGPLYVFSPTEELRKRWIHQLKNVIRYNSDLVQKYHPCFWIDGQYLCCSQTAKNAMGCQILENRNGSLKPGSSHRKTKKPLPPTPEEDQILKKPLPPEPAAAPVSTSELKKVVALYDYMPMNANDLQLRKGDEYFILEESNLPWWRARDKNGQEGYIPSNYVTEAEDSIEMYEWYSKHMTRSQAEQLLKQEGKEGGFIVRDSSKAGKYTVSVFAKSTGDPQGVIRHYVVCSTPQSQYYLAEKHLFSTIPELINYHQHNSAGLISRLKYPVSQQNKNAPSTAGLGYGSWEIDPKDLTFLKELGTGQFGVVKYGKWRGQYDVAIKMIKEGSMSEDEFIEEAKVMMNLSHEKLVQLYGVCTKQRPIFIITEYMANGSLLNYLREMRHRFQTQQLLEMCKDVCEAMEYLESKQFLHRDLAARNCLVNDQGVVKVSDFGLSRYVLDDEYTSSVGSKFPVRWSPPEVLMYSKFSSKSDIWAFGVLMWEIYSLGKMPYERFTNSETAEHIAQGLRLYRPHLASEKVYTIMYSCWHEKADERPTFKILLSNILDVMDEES
T2 sequence (Q96SW2 whole entry): as the sequence (Q96SW2 whole entry partner) above
T2 sequence (Q16531 whole entry partner): as the sequence (Q16531 whole entry partner) above

IKZF3 deg Amax % (IKZF3-GFP)	DC50 (IKZF3-GFP)	BTK (C481S) Amax % (BTK(C481S)-GFP)	DC50 (BTK(C481S)-GFP)	SMILES
96.7%	> 10000 nM	2.2%	0.2 nM	COc1ccc(C(=O)N2CCC(CN3CCC(Oc4ccc(-c5cc6c(-c7cc(F)cc(NC(=O)N8C[C@H](CC(C)C)[C@@H](O)C8)c7C)ncnc6[nH]5)cc4)CC3)CC2)cc1N1CCC(=O)NC1=O [Compound 11, (3R,4S)—N-(3-(6-(4-((1-((1-(3-(2,4-Dioxotetrahydropyrimidin-1 (2H)-yl)-4-methoxybenzoyl)piperidin-4-yl)methyl)piperidin-4-yl)oxy)phenyl)-7H-pyrrolo[2,3-d]pyrimidin-4-yl)-5-fluoro-2-methylphenyl)-3-hydroxy-4-isobutylpyrrolidine-1-carboxamide]
104.0%	> 1100 nM	3.0%	0.3 nM	COc1ccc(C(=O)N2CCC(CN3CCN(Cc4ccc(-c5cc6c(-c7cc(F)cc(NC(=O)N8C[C@H](CC(C)C)[C@@H](O)C8)c7C)ncnc6[nH]5)cc4)CC3)CC2)cc1N1CCC(=O)NC1=O [Compound 12, (3R,4S)—N-(3-(6-(4-((4-((1-(3-(2,4-Dioxotetrahydropyrimidin-1(2H)-yl)-4-methoxybenzoyl)piperidin-4-yl)methyl)piperazin-1-yl)methyl)phenyl)-7H-pyrrolo[2,3-d]pyrimidin-4-yl)-5-fluoro-2-methylphenyl)-3-hydroxy-4-isobutylpyrrolidine-1-carboxamide]
99.7%	> 3300 nM	1.1%	0.2 nM	COc1ccc(C(=O)N2CCC(OC3CCN(CCc4ccc(-c5cc6c(-c7cc(F)cc(NC(=O)N8C[C@H](CC(C)C)[C@@H](O)C8)c7C)ncnc6[nH]5)cc4)CC3)CC2)cc1N1CCC(=O)NC1=O [Compound 13, (3R,4S)—N-(3-(6-(4-(2-(4-((1-(3-(2,4-Dioxotetrahydropyrimidin-1(2H)-yl)-4-methoxybenzoyl)piperidin-4-yl)oxy)piperidin-1-yl)ethyl)phenyl)-7H-pyrrolo[2,3-d]pyrimidin-4-yl)-5-fluoro-2-methylphenyl)-3-hydroxy-4-isobutylpyrrolidine-1-carboxamide]
100.2%	> 5500 nM	3.0%	0.9 nM	COc1ccc(C(=O)N2CCC3(CCN(CCc4ccc(-c5cc6c(-c7cc(F)cc(NC(=O)N8C[C@H](CC(C)C)[C@@H](O)C8)c7C)ncnc6[nH]5)cc4)CC3)CC2)cc1N1CCC(=O)NC1=O [Compound 15, (3R,4S)—N-(3-(6-(4-(2-(9-(3-(2,4-Dioxotetrahydropyrimidin-1(2H)-yl)-4-methoxybenzoyl)-3,9-diazaspiro[5.5]undecan-3-yl)ethyl)phenyl)-7H-pyrrolo[2,3-d]pyrimidin-4-yl)-5-fluoro-2-methylphenyl)-3-hydroxy-4-isobutylpyrrolidine-1-carboxamide]
102.4%	> 1100 nM	2.9%	16 nM	COc1ccc(C(=O)N2CCC3(CCN(CCc4ccc(-c5cc6c(-c7cc(F)cc(NC(=O)N8C[C@@H](CC(C)C)[C@H](O)C8)c7C)ncnc6[nH]5)cc4)CC3)CC2)cc1N1CCC(=O)NC1=O [Compound 19, (3S,4R)—N-(3-(6-(4-(2-(9-(3-(2,4-dioxotetrahydropyrimidin-1(2H)-yl)-4-methoxybenzoyl)-3,9-diazaspiro[5.5]undecan-3-yl)ethyl)phenyl)-7H-pyrrolo[2,3-d]pyrimidin-4-yl)-5-fluoro-2-methylphenyl)-3-hydroxy-4-isobutylpyrrolidine-1-carboxamide]

More lines, now with the values behind:

SMILES	IKZF3 deg Amax % (IKZF3-GFP)	DC50 (IKZF3-GFP)	BTK (C481S) Amax % (BTK(C481S)-GFP)	DC50 (BTK(C481S)-GFP)
COc1ccc(C(=O)N2CCC3(CCN(Cc4ccc(-c5cc6c(-c7cc(F)cc(NC(=O)N8C[C@@H](CC(C)C)[C@H](O)C8)c7C)ncnc6[nH]5)cc4)CC3)CC2)cc1N1CCC(=O)NC1=O (racemic) [Compound 5, trans-rac-N-(3-(6-(4-((9-(3-(2,4-Dioxotetrahydropyrimidin-1(2H)-yl)-4-methoxybenzoyl)-3,9-diazaspiro[5.5]undecan-3-yl)methyl)phenyl)-7H-pyrrolo[2,3-d]pyrimidin-4-yl)-5-fluoro-2-methylphenyl)-3-hydroxy-4-isobutylpyrrolidine-1-carboxamide]	103.7%	> 3300 nM	2.0%	1.3 nM
COc1ccc(C(=O)N2CCC3(CCN(Cc4ccc(-c5cc6c(-c7cc(F)cc(NC(=O)N8C[C@@H](CC(C)C)[C@H](O)C8)c7C)ncnc6[nH]5)cc4)CC3)CC2)cc1N1CCC(=O)NC1=O [Compound 1, (3S,4R)—N-(3-(6-(4-((9-(3-(2,4-Dioxotetrahydropyrimidin-1(2H)-yl)-4-methoxybenzoyl)-3,9-diazaspiro[5.5]undecan-3-yl)methyl)phenyl)-7H-pyrrolo[2,3-d]pyrimidin-4-yl)-5-fluoro-2-methylphenyl)-3-hydroxy-4-isobutylpyrrolidine-1-carboxamide]	102.7%	> 1100 nM	3.6%	41 nM
COc1ccc(C(=O)N2CCC(OCCN3CCN(Cc4ccc(-c5cc6c(-c7cc(F)cc(NC(=O)N8C[C@H](CC(C)C)[C@@H](O)C8)c7C)ncnc6[nH]5)cc4)CC3)CC2)cc1N1CCC(=O)NC1=O [Compound 2, (3R,4S)—N-(3-(6-(4-((4-(2-((1-(3-(2,4-Dioxotetrahydropyrimidin-1 (2H)-yl)-4-methoxybenzoyl)piperidin-4-yl)oxy)ethyl)piperazin-1-yl)methyl)phenyl)-7H-pyrrolo[2,3-d]pyrimidin-4-yl)-5-fluoro-2-methylphenyl)-3-hydroxy-4-isobutylpyrrolidine-1-carboxamide]	101.8%	> 3300 nM	2.0%	0.4 nM
COc1ccc(C(=O)N2CCC3(CCN(Cc4ccc(-c5cc6c(-c7cc(F)cc(NC(=O)N8C[C@H](CC(C)C)[C@@H](O)C8)c7C)ncnc6[nH]5)cc4)CC3)CC2)cc1N1CCC(=O)NC1=O [Compound 6, (3R,4S)—N-(3-(6-(4-((9-(3-(2,4-Dioxotetrahydropyrimidin-1(2H)-yl)-4-methoxybenzoyl)-3,9-diazaspiro[5.5]undecan-3-yl)methyl)phenyl)-7H-pyrrolo[2,3-d]pyrimidin-4-yl)-5-fluoro-2-methylphenyl)-3-hydroxy-4-isobutylpyrrolidine-1-carboxamide]	93.5%	> 3300 nM	2.1%	0.7 nM
COc1ccc(C(=O)N2CCC(OC3CCN(Cc4ccc(-c5cc6c(-c7cc(F)cc(NC(=O)N8C[C@H](CC(C)C)[C@@H](O)C8)c7C)ncnc6[nH]5)cc4)CC3)CC2)cc1N1CCC(=O)NC1=O [Compound 8, (3R,4S)—N-(3-(6-(4-((4-((1-(3-(2,4-Dioxotetrahydropyrimidin-1(2H)-yl)-4-methoxybenzoyl)piperidin-4-yl)oxy)piperidin-1-yl)methyl)phenyl)-7H-pyrrolo[2,3-d]pyrimidin-4-yl)-5-fluoro-2-methylphenyl)-3-hydroxy-4-isobutylpyrrolidine-1-carboxamide]	107.4%	> 1000 nM	2.7%	0.4 nM
